The test system of series [1] is human hepatocytes. Kind of series: Intrinsic clearance in cryopreserved human hepatocytes. The class given is in vitro ADME. Here is the method:
(§1) Cryopreserved hepatocytes from humans, rats (Sprague-Dawley males) and from mice (CD-1 males) were used for incubation at different times (0, 0.5, 1, 1.5, 2 hours) at 37° C. followed by HPLC-MS/MS detection. The aim was to verify the clearance time of the test substance on hepatocytes. The experiment was performed on a 96-well plate and the cryopreserved hepatocytes were thawed and resuspended in Krebs-Heinslet buffer(pH 7.3). The reaction was started by adding each test compound to each cell suspension and performing the incubation at the times indicated above. The reaction was quenched with addition of acetonitrile in the wells and detection by HPLC-MS/MS (mass spectrometry). MS/MS is performed by combining two mass detectors into a single instrument.

The target in series [2] is CYP2C19 (Homo sapiens (Human), UniProt P33261). Kind of series: CYP inhibition, fluorogenic substrate. The class given is in vitro ADME. On the set-up: dose or concentration left out as unconfirmed. As to conditions: recombinant CYP2C19, pH 7.4. The text has this:
(§2) The CYP inhibition test used fluorogenic substrates specific to each CYP to check for inhibition thereof by detection of the expected metabolite using a fluorimetric method. Recombinant CYPs (CYP2B6, CYP2C8, […], CYP2C19, CYP2D6, CYP3A4) from specific humans for each cytochrome family, subfamily and polypeptide were used. The following were used as substrates: CEC (3-Cyano-7-Ethoxycoumarin) which forms as metabolite CHC (3-Cyano-7-Hydroxycoumarin); EFC (7-Ethoxy-4-trifluoromethyl coumarin), forming the metabolite HFC (7-Hydroxytri fluoromethylcoumarin); DBF (Dibenzylfluorescein) and its respective fluorescein metabolite; MFC (7-Methoxy-4-trifluoromethylcoumarin) which forms the metabolite HFC (7-Hydroxytrifluoromethylcoumarin); BFC (7-Benzyloxy-Trifluoromethylcoumarin) and its metabolite HFC; and BzRes (benzyloxyresorufin) to form resofurine. The detection of the metabolite was done with a fluorimetric method: analytical technique to identify and characterize the amount of substance by excitation using a beam of ultraviolet light and measurement of the emitted fluorescence. For detection, a 96-well plate was used. Each sample was tested in two wells (n=2) as standard condition. At least 04 wells were separated for vehicle (control). Compounds were tested at a concentration […], standard for this assay. They were preincubated with a NADPH generator system in a phosphate buffer (pH 7.4) for 5 minutes at 37° C. The reaction was started by adding the specific CYP enzymes, substrate and bovine serum albumin (BSA<0.4 mg/ml). Incubations were performed between 20-50 minutes at 37° C. according to the specific parameter of each fluorogenic substrate, for the evaluated component. Fluorescence at each well was detected before and after the incubation period.

Series [3] deals with CYP2D6 (Homo sapiens (Human), UniProt P10635). Briefly: CYP inhibition, fluorogenic substrate. Type of series: in vitro ADME. Also on record: dose or concentration left out as unconfirmed. As to conditions: recombinant CYP2D6, pH 7.4.
Source text: as §2

Series [4] deals with CYP2C9 (Homo sapiens (Human), UniProt P11712). Briefly: CYP inhibition, fluorogenic substrate. Type of series: in vitro ADME. Also on record: dose or concentration left out as unconfirmed. The conditions noted are these: recombinant CYP2C9, pH 7.4.
Source text: as §2

Series [5] addresses CYP2B6 (Homo sapiens (Human), UniProt P20813). Kind of series: CYP inhibition, fluorogenic substrate. Type of series: in vitro ADME. On the set-up: dose or concentration left out as unconfirmed. The conditions noted are these: recombinant CYP2B6, pH 7.4.
Source text: as §2

The target in series [6] is CYP2C8 (Homo sapiens (Human), UniProt P10632). Kind of series: CYP inhibition, fluorogenic substrate. Also on record: dose or concentration left out as unconfirmed. The class given is in vitro ADME. As to conditions: recombinant CYP2C8, pH 7.4.
Source text: as §2

Series [7] relates to rat hepatocytes (Sprague-Dawley males). Kind of series: Intrinsic clearance in cryopreserved rat hepatocytes. Type of series: in vitro ADME. How it is done:
as §1

A short description of series [8]: Permeability in Caco-2 cells. The class given is in vitro ADME. As to conditions: human, Caco-2, pH 6.5, 37° C.; for Papp A→B at 60 min: apical to basolateral, read-out: Permeability A-B (pH 6.5/7.4); for Papp B→A at 40 min: basolateral to apical, read-out: Permeability B-A (pH 6.5/7.4). How it is done:
Permeability tests were performed using Caco-2 cells, a colorectal epithelial adenocarcinoma cell line. These cells resemble intestinal epithelial cells in some aspects, such as the formation of a polarized monolayer, a well-defined brush border on the apical surface, and intercellular junctions.
The test is performed in both directions [apical to basolateral (A-B) and basolateral to apical (B-A)] through the cell monolayer, allowing an efflux ratio that provides an indicator as to whether a compound undergoes active efflux. Particle detection was performed with HPLC-MS/MS (mass spectrometry) according to the calculation of the peak area of the result. MS/MS was performed by combining two mass detectors in a single instrument.
A-B permeability was performed at pH 6.5/7.4 with incubation time of 0 and 60 minutes at 37° C. and B-A permeability was performed at pH 6.5/7.4 with incubation time of 0 and 40 minutes at 37° C.

Series [9] is described as follows: Water solubility (shake-flask, PBS pH 7.4). The class given is physicochemical. As to conditions: aqueous buffer, thermodynamic from solid. Here is the method:
In addition, chromatographic purity (%) was defined as the calculation of the main peak area relative to the calculation of the peak area integrate of the standard HPLC calibration chromatogram. A standard calibration chromatogram was then generated for each compound tested along with a UV/VIS spectrum with maximal labeled absorbance. The shake-flash technique was used with constant stirring during incubation to keep a uniform medium for 24 hours in PBS at pH 7.4.

Series [10] has as its system mouse hepatocytes (CD-1 males). Kind of series: Intrinsic clearance in cryopreserved mouse hepatocytes. The class given is in vitro ADME. Here is the method: as §1
The nature of series [11]: Pharmacokinetics (PK) in rat, I.V. and oral. Type of series: in vivo, Wistar-Han rats. As to conditions: oral 10 mg/kg; for AUC(0-t): Wistar-Han, plasma. How it is done: […] The study lasted for 2 weeks (including acclimation time and study), in which the route of administration was made by injection into the caudal vein and oral gavage. The treatment was carried out in a single dose: I.V. group with dose of 1 mg/kg and Oral group with dose of 10 mg/kg. […] Clinical observations were made twice a day (morning and afternoon) in the pre-dose at the 08 time points defined in the protocol. Blood collection was performed after euthanasia in the pre-dose animals at 08 defined time points and at 24 hours post-dose. The pharmacokinetic analysis parameters detected for Group IV were: half-life (t½), drug concentration at time zero (C0), last measurable plasma concentration (AUClast), area under the plasma concentration curve extrapolation percentage (AUC % ext), area under the plasma concentration curve extrapolation to infinity (AUCinf), volume of distribution (Vz), steady state volume of distribution (Vss), clearance (CL) and mean residence time (MRT). The parameters evaluated for the Oral group were: bioavailability (F %), maximum concentration reached (Cmax), time to reach maximum plasma concentration (Tmax), last measurable plasma concentration (AUClast), area under the plasma concentration curve extrapolation percentage (AUC % ext), area under the plasma concentration curve extrapolation to infinity (AUCinf), area under the plasma concentration curve extrapolation to infinity versus dose (AUCinf/Dose), half-Life (t½), and mean residence time (MRT).

Series [12] concerns the target CYP1A2 (Homo sapiens (Human), UniProt P05177). Briefly: CYP inhibition, fluorogenic substrate. The conditions noted are these: human, recombinant CYP1A2, pH 7.4. Also on record: inhibition: dose or concentration left out as unconfirmed. The class given is in vitro ADME.
Source text: as §2

Series [13] deals with melatonin receptors. The conditions noted are these: Depreux et al. 1994; cited from earlier work.
The conditions of series [14]: oral, estimated, from literature; cited from earlier work.
The conditions of series [15]: conjugate acid, J. Org. Chem. 1961; cited from earlier work.

Values after ≈ are worked out from the molar mass of the structure shown. Some results are limits rather than exact numbers.

A word on the inhibition: it is the drop in the measured response relative to a control, in per cent. What is called solubility is how much of the substance goes into solution per volume. By AUC(0-t) is commonly meant exposure summed from dosing to a finite time, without extrapolation to infinity.

Chain of CYP2C19 (P33261 whole entry): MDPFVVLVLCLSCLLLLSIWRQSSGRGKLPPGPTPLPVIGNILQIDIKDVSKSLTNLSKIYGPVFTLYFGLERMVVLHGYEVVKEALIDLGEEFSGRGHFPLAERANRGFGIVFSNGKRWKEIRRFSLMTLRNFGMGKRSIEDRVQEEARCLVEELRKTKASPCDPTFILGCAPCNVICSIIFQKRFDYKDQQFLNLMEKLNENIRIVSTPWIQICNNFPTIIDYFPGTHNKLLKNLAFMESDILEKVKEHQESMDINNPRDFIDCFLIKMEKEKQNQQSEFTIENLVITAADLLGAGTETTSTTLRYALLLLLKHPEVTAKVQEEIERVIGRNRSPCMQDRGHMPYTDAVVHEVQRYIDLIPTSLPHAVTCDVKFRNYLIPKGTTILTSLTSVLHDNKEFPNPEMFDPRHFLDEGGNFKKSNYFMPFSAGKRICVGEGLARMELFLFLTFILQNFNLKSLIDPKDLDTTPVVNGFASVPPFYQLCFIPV
Chain of CYP2C9 (P11712 whole entry): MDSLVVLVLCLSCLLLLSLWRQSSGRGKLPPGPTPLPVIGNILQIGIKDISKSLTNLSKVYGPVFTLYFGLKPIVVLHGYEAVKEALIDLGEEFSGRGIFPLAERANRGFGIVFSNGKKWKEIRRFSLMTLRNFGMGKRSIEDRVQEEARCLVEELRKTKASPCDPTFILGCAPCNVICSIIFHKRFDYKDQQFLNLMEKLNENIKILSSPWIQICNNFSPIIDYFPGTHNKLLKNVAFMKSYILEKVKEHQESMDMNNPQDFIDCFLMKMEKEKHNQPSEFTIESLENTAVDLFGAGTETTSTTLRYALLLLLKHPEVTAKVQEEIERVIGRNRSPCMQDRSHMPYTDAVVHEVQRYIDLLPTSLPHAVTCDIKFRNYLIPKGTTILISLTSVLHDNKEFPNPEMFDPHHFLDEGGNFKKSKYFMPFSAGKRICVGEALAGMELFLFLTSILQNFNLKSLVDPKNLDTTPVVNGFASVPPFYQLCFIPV
Chain of CYP2D6 (P10635 whole entry): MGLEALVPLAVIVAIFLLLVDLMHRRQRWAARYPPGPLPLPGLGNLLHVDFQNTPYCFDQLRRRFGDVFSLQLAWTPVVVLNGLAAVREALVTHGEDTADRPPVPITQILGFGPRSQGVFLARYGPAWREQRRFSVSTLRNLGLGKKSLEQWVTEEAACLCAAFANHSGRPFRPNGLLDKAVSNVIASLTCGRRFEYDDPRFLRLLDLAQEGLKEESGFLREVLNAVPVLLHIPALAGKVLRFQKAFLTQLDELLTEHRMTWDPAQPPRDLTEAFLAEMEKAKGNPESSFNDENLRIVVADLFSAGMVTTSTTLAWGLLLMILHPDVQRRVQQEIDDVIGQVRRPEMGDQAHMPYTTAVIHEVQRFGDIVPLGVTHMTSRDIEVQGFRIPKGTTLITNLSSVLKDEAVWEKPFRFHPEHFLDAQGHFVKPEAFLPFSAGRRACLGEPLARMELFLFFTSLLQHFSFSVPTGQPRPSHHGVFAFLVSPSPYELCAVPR
Chain of CYP2B6 (P20813 whole entry): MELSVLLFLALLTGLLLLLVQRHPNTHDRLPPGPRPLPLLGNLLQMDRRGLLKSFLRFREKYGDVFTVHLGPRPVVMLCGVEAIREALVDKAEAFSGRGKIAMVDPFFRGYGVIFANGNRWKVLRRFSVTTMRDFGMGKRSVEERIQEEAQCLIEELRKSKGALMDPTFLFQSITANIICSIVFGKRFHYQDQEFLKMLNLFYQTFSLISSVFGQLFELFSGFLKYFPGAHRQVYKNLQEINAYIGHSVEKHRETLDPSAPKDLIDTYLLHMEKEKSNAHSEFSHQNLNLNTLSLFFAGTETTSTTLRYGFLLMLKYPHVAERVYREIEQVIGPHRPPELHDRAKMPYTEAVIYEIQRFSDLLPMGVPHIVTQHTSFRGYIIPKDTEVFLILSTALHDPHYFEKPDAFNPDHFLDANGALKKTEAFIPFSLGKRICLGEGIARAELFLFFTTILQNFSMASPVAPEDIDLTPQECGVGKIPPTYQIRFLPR
Chain of CYP2C8 (P10632 whole entry): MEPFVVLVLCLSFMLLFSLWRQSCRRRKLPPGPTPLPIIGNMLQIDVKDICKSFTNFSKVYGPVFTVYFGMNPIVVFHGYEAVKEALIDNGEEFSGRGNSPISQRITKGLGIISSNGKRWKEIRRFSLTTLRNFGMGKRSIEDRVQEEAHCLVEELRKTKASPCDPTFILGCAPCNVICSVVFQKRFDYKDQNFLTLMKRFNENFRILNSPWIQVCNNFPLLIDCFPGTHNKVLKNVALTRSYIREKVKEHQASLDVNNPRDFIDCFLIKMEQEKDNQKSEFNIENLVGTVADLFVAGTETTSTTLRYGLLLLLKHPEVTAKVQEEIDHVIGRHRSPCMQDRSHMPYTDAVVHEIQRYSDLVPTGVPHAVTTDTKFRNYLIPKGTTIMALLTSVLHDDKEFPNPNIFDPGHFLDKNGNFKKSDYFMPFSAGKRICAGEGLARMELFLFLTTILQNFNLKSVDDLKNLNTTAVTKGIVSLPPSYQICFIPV
Chain of CYP1A2 (P05177 whole entry): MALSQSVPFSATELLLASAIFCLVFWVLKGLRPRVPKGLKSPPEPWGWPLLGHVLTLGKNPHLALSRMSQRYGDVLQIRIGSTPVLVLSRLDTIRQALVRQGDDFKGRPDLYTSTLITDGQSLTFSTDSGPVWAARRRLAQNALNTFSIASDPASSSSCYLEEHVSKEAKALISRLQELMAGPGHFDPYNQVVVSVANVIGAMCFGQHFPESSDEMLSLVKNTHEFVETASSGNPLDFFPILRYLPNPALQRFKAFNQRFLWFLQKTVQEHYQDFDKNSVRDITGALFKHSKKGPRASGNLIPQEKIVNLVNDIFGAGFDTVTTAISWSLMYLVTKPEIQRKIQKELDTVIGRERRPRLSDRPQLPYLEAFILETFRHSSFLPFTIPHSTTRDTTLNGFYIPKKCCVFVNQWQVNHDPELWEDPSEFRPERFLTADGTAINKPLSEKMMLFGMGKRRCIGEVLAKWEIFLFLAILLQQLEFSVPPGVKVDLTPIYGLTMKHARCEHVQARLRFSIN

Regarding `CCOc1nc2ccc(OC)cc2n1CCCNC(C)=O` [IA2-120], the “Intrinsic clearance half-life, Human” value in series [1] was more than 2 h. The inhibition was 6.4% in [2]; -0.3% in series [3]; 26.7% in [4]; 7.9% in [5]; 9.1% in series [6]. Further, in series [7], the “Intrinsic clearance half-life, Rat Sprague-Dawley” value worked out at 0.883 h. Moreover, the Papp A→B at 60 min in [8] came out at 321 nm/s. Further, the Papp B→A at 40 min in series [8] turned out to be 295 nm/s. This molecule also returned a solubility at 24 h in series [9] of 200 µM (≈ 58.3 µg/mL). Also, in [10], the “Intrinsic clearance half-life, Mouse CD-1” value is more than 2 h.

`CCOc1nc2cc(Cl)c(OC)cc2n1CCNC(C)=O` [IA2-121]: the “Intrinsic clearance half-life, Human” value in series [1] is more than 2 h. Further, the inhibition in series [2] amounted to 33.8%; in [3], 0.9%; in series [4] it was 23.7%; in [5] it was 8.4%; in series [6] it was 7%. Moreover, the “Intrinsic clearance half-life, Rat Sprague-Dawley” value in series [7] was found to be 0.867 h. For the same molecule, the Papp A→B at 60 min in series [8] is 582 nm/s. The Papp B→A at 40 min in [8] was found to be 321 nm/s. In series [9], this molecule yielded a solubility at 24 h of 200 µM (≈ 62.4 µg/mL). Moreover, in [10], the “Intrinsic clearance half-life, Mouse CD-1” value was more than 2 h.

On to `COc1ccc2nc(OC)n(CCCNC(C)=O)c2c1` [IA2-140], for which the area under the curve AUC(0-t) in series [11] is 2.44 µg·h/mL. Further, in [1], the “Intrinsic clearance half-life, Human” value was more than 2 h. In addition, the inhibition in series [2] was 7.2%; in series [3], 0.3%; in [4] it was 2.6%; in series [5], 0.4%; in [6], -2.2%; in series [12], -0.7%. In series [7], the “Intrinsic clearance half-life, Rat Sprague-Dawley” value is more than 2 h. In [8], the Papp A→B at 60 min was 273 nm/s. Also, the Papp B→A at 40 min in series [8] turned out to be 551 nm/s. This molecule also had a solubility at 24 h in series [9] of 197 µM (≈ 54.7 µg/mL). In series [10], the “Intrinsic clearance half-life, Mouse CD-1” value was more than 2 h.

`CCOc1nc2cc(Cl)c(OC)cc2n1CCCNC(C)=O` [IA2-142]: the “Intrinsic clearance half-life, Human” value in series [1] was more than 2 h. Moreover, the inhibition in series [2] was 27.7%; in series [3], 6.9%; in [4], 13%; in [5] it was 0.5%; in [6], -4.7%. In addition, the “Intrinsic clearance half-life, Rat Sprague-Dawley” value in [7] was more than 2 h. Further, the Papp A→B at 60 min in series [8] amounted to 340 nm/s. Besides, the Papp B→A at 40 min in [8] stood at 578 nm/s. In series [9], this molecule showed a solubility at 24 h of 181 µM (≈ 58.9 µg/mL). In addition, in [10], the “Intrinsic clearance half-life, Mouse CD-1” value was more than 2 h.

In turn, `COc1cc2c(cc1Cl)nc(OC)n2CCNC(C)=O` [IA2-143] returned an AUC(0-t) in series [11] of 4.05 µg·h/mL. In series [11], this molecule came in with an AUClast of 4.049 µg·h/mL. In addition, the inhibition in series [2] was 10%; in series [3] it was 0.8%; in series [4], -9.6%; in series [5], -1.1%; in [6], -13%; in series [12], 1.4%. Further, the “Intrinsic clearance half-life, Rat Sprague-Dawley” value in series [7] is 1.8 h. For the same molecule, in [8], the Papp A→B at 60 min was determined as 213 nm/s. Also, the Papp B→A at 40 min in [8] worked out at 718 nm/s. This molecule also returned a solubility at 24 h in [9] of 197 µM (≈ 58.6 µg/mL).

Take `COc1ccc2ncn(CCNC(C)=O)c2c1` [N-[2-(6-methoxybenzimidazol-1-yl)-ethyl]acetamide]: in [13], the “affinity, times lower than melatonin affinity” value is recorded as “approximately 3,200 times”.

Regarding `CCC(=O)NCC[C@@H]1CCc2ccc3c(c21)CCO3` [ramelteon], the absolute bioavailability in series [14] was 1.8%.

Turning to `c1ccc2[nH]cnc2c1` [unsubstituted benzimidazole, benzimidazole], in [15], the pKa entry is “above 6”.

The values above are taken from patent US10781182B2, “Compounds, process for obtaining the compounds, pharmaceutical composition, use of the compounds and method for treating psychiatric disorders and/or sleep disorders” (ACHÉ LABORATÓRIOS FARMACÊUTICOS S.A., priority 2016, dated 2020).
